Experimental data taken from the NIST ThermoML archive (doi:10.1016/j.fluid.2008.10.003).

Test: isobaric coefficient of expansion; xn = mol fraction of the nth substance listed
Conditions: 278.15 K, calorimetric method

CCCCCCO [hexan-1-ol] + CCCCCC
isobaric coefficient of expansion
Conditions	5000 kPa	10000 kPa	15000 kPa	20000 kPa	25000 kPa
x1 = 0.0321	0.00122 1/K	0.00117 1/K	0.00114 1/K	0.0011 1/K	0.00107 1/K
x1 = 0.041	0.00122 1/K	0.00118 1/K	0.00114 1/K	0.0011 1/K	0.00107 1/K
x1 = 0.0946	0.00119 1/K	0.00115 1/K	0.00112 1/K	0.00108 1/K	0.00105 1/K
x1 = 0.1679	0.00116 1/K	0.00112 1/K	0.00108 1/K	0.00105 1/K	0.00102 1/K
x1 = 0.2153	0.00114 1/K	0.0011 1/K	0.00107 1/K	0.00103 1/K	0.00101 1/K
x1 = 0.3016	0.0011 1/K	0.00106 1/K	0.00103 1/K	0.000999 1/K	0.000978 1/K
x1 = 0.4075	0.00105 1/K	0.00102 1/K	0.000995 1/K	0.000967 1/K	0.000946 1/K
x1 = 0.503	0.00101 1/K	0.000989 1/K	0.000961 1/K	0.00094 1/K	0.000917 1/K
x1 = 0.594	0.000978 1/K	0.000951 1/K	0.000932 1/K	0.000902 1/K	0.000887 1/K
x1 = 0.6827	0.000937 1/K	0.000916 1/K	0.000897 1/K	0.000874 1/K	0.000857 1/K
x1 = 0.8013	0.000892 1/K	0.000865 1/K	0.000857 1/K	0.000834 1/K	0.000819 1/K
x1 = 0.8934	0.00085 1/K	0.000837 1/K	0.000817 1/K	0.000803 1/K	0.000789 1/K
x1 = 1	0.000821 1/K	0.0008 1/K	0.000788 1/K	0.000778 1/K	0.00076 1/K
